EC50 data for one compound are collected here from ChEMBL document CHEMBL1147342, “Isolation and structure of the marine sponge cell growth inhibitory cyclic peptide phakellistatin 1” (1993).

Converted amounts (≈) assume the structure as drawn. Peptide text beside a SMILES is read from it.

The test system of this experiment is P388. Description: Cytotoxicity against mouse P388 cells. It is filed as functional. Conditions: read-out: ED50 (the source's name).

As for `CC[C@H](C)[C@@H]1NC(=O)[C@@H]2CCCN2C(=O)[C@H]([C@@H](C)CC)NC(=O)[C@@H]2CCCN2C(=O)[C@H](Cc2ccc(O)cc2)NC(=O)[C@@H]2CCCN2C(=O)[C@H](Cc2ccccc2)NC1=O` [PHAKELLISTATIN 1] (cyclo(FPYPIPI)), the EC50 was found to be 7.5 µg/mL (≈ 9.06 µM).
